What all share (experiment): MIC by micro broth dilution
Type in all cases: cell-based
Background: In broth dilution the organism is exposed to a series of concentrations in liquid medium.

In experiment [1] the test system is S. epidermidis ATCC 35984. The conditions noted are these: Staphylococcus epidermidis, ATCC35984, read-out: Minimum inhibitory concentration (MIC). The procedure: (§1) MIC of DART molecules were determined by micro broth dilution as per CLSI guidelines. Bacterial strains were cultured in Brain Heart Infusion Agar (BHIA) at 37° C. for 24 h. For MIC determination, BHI broth (100 μl) was added to each of the wells of a 96 well plate. 100 μl of broth containing drug was added to the first well (1A to 1H) and thereafter serial (double) dilutions were carried out for up to 10 wells (column 1 to column 10 of the 96 well plate). Bacterial inoculum was prepared by adjusting the bacterial culture turbidity to 0.5 McFarland standard (approximately 1.5×10^8 cells/ml) and further diluted (100 times with sterile BHI broth). Diluted bacterial suspension (100 μl) was added to each well except sterility control wells (column 12 of 96 well plate). The plates were incubated at 37° C. for 24 h. The MIC of the test compound was measured after addition of Alamar blue dye.

A further experiment concerns S. epidermidis S12-1. The note with it: Staphylococcus epidermidis, S121, read-out: Minimum inhibitory concentration (MIC). How it is done: as §1
The next experiment concerns S. aureus MTCC 6908. The note with it: Staphylococcus aureus, MTCC6908, read-out: Minimum inhibitory concentration (MIC). The procedure:
as §1

In the next experiment the test system is S. aureus ATCC 43300. The conditions noted are these: Staphylococcus aureus, ATCC43300; S. aureus ATCC 43300; read-out: Minimum inhibitory concentration (MIC). The procedure: as §1
The subject of another experiment is E. faecium NCIM 5421. The conditions noted are these: Enterococcus faecium, NCIM5421, read-out: Minimum inhibitory concentration (MIC). The procedure:
as §1

A further experiment deals with E. fecalis CCARM 5168. The conditions noted are these: read-out: Minimum inhibitory concentration (MIC). How it is done:
as §1

Another experiment relates to S. aureus CCARM 3505. The conditions noted are these: Staphylococcus aureus, CCARM3505, read-out: Minimum inhibitory concentration (MIC). The procedure:
as §1

In a further experiment the test system is E. faecium CCARM 5207. The conditions noted are these: Enterococcus faecium, CCARM5207, read-out: Minimum inhibitory concentration (MIC). How it is done: as §1
The next experiment has as its system P. aeruginosa CCARM 2204. The note with it: Pseudomonas aeruginosa, CCARM2204, read-out: Minimum inhibitory concentration (MIC). The procedure:
as §1

The subject of a further experiment is E. aerogenes NCIM 5139. The note with it: Klebsiella aerogenes, NCIM5139, read-out: Minimum inhibitory concentration (MIC). The procedure: as §1
In another experiment the test system is K. pneumonia ATCC 13883. The note with it: for activity in words: Klebsiella pneumonia (susceptible); for MIC: Klebsiella pneumoniae, ATCC13883, K. pneumonia ATCC 13883, read-out: Minimum inhibitory concentration (MIC). How it is done:
as §1

The next experiment concerns P. aeruginosa CCARM 2161. The note with it: Pseudomonas aeruginosa, CCARM2161, read-out: Minimum inhibitory concentration (MIC). How it is done: as §1
For the next experiment, the system named is E. aerogenes M2-1. The conditions noted are these: Klebsiella aerogenes, M21, read-out: Minimum inhibitory concentration (MIC). How it is done:
as §1

Another experiment concerns E. coli MTCC 1687. The note with it: Escherichia coli, MTCC1687, read-out: Minimum inhibitory concentration (MIC). The procedure:
as §1

The subject of a further experiment is P. aeruginosa ATCC 27853. The note with it: Pseudomonas aeruginosa, ATCC27853, read-out: Minimum inhibitory concentration (MIC). How it is done:
as §1

In a further experiment the test system is A. baumannii CCARM 12020. The conditions noted are these: Acinetobacter baumannii, CCARM12020, read-out: Minimum inhibitory concentration (MIC). The procedure: as §1
The test system of another experiment is E. coli BAA 196. The note with it: Escherichia coli, BAA196, read-out: Minimum inhibitory concentration (MIC). How it is done:
as §1

In a further experiment the test system is A. baumannii CCARM 12001. The conditions noted are these: Acinetobacter baumannii, CCARM12001, read-out: Minimum inhibitory concentration (MIC). How it is done: as §1
For another experiment, the system named is A. baumannii ATCC 1906. The note with it: Acinetobacter baumannii, ATCC1906, read-out: Minimum inhibitory concentration (MIC). The procedure: as §1

≈ marks a conversion by molar mass, not a printed value.

Consider `CC1Sc2c(C(=O)O)c(=O)c3cc(F)c(N4CCN(CC(=O)Nc5ccc6nc(N)[nH]c6c5)CC4)cc3n21` (stereo not shown) [Compound 19, 7-(4-(2-((2-Amino-1H-benzo[d]imidazol-6-yl)-amino)-2-oxoethyl)piperazin-1-yl)-6-fluoro-1-methyl-4-oxo-1H,4H-[1,3]thiazeto[3,2-a]quinoline-3-carboxylic acid], for which the MIC in experiment [1] is 16 µg/mL (≈ 29.8 µM); in the experiment with S. epidermidis S12-1 it was greater than 16 µg/mL; in the experiment on S. aureus MTCC 6908 it was greater than 64 µg/mL; with S. aureus ATCC 43300, 32 µg/mL (≈ 59.5 µM); in the experiment with E. faecium NCIM 5421, greater than 16 µg/mL; in the experiment on E. fecalis CCARM 5168, greater than 16 µg/mL. The MIC with S. aureus CCARM 3505 and with E. faecium CCARM 5207 was greater than 16 µg/mL in each case.

For the compound `CC1Sc2c(C(=O)O)c(=O)c3cc(F)c(N4CCN(Cc5nc6cc(Cl)c(Cl)cc6[nH]5)CC4)cc3n21` (stereo not shown) [Compound 21, 7-(4-((5,6-Dichloro-1H-benzo[d]imidazol-2-yl)methyl)piperazin-1-yl)-6-fluoro-1-methyl-4-oxo-1H,4H-[1,3]thiazeto[3,2-a]quinoline-3-carboxylic acid], the MIC in experiment [1] is less than 0.03 µg/mL; in the experiment with S. epidermidis S12-1, greater than 16 µg/mL; in the experiment on S. aureus MTCC 6908, 0.25 µg/mL (≈ 0.456 µM); in the experiment with S. aureus ATCC 43300, 0.13 µg/mL (≈ 0.237 µM); in the experiment on P. aeruginosa CCARM 2204, greater than 16 µg/mL; in the experiment with E. aerogenes NCIM 5139, 16 µg/mL (≈ 29.2 µM). Also, the MIC in the experiment with K. pneumonia ATCC 13883 was 0.5 µg/mL (≈ 0.912 µM); in the experiment with P. aeruginosa CCARM 2161, greater than 16 µg/mL; in the experiment with E. faecium NCIM 5421, 0.25 µg/mL (≈ 0.456 µM); with E. aerogenes M2-1, 16 µg/mL (≈ 29.2 µM); with S. aureus CCARM 3505 it was greater than 16 µg/mL; in the experiment with E. coli MTCC 1687, 8 µg/mL (≈ 14.6 µM). Moreover, the MIC in the experiment on P. aeruginosa ATCC 27853 is 16 µg/mL (≈ 29.2 µM); with A. baumannii CCARM 12020 it was greater than 16 µg/mL; in the experiment on E. coli BAA 196, greater than 16 µg/mL; with A. baumannii CCARM 12001, greater than 16 µg/mL; in the experiment on A. baumannii ATCC 1906, 16 µg/mL (≈ 29.2 µM). For the same compound, the activity in words result with K. pneumonia ATCC 13883 is reported as “active”.

For the compound `CC1Sc2c(C(=O)O)c(=O)c3cc(F)c(N4CCN(C(=O)c5cccc(Br)n5)CC4)cc3n21` (stereo not shown) [Compound 32, 7-(4-(6-Bromopicolinoyl)piperazin-1-yl)-6-fluoro-1-methyl-4-oxo-1H,4H-[1,3]thiazeto[3,2-a]-quinoline-3-carboxylic acid], the MIC in experiment [1] was 0.13 µg/mL (≈ 0.244 µM); in the experiment with S. epidermidis S12-1, 4 µg/mL (≈ 7.5 µM); in the experiment on S. aureus MTCC 6908, 0.5 µg/mL (≈ 0.937 µM); with S. aureus ATCC 43300, 0.06 µg/mL (≈ 0.112 µM); in the experiment on P. aeruginosa CCARM 2204, greater than 16 µg/mL; in the experiment on E. aerogenes NCIM 5139, 16 µg/mL (≈ 30 µM). The MIC in the experiment on K. pneumonia ATCC 13883 is 0.5 µg/mL (≈ 0.937 µM); in the experiment on P. aeruginosa CCARM 2161 it was greater than 16 µg/mL; with E. aerogenes M2-1, 16 µg/mL (≈ 30 µM); in the experiment with S. aureus CCARM 3505, 8 µg/mL (≈ 15 µM); in the experiment on E. coli MTCC 1687, 4 µg/mL (≈ 7.5 µM); with P. aeruginosa ATCC 27853, 16 µg/mL (≈ 30 µM). The MIC in the experiment with A. baumannii CCARM 12020 is greater than 16 µg/mL; in the experiment with E. coli BAA 196, 8 µg/mL (≈ 15 µM); in the experiment on A. baumannii CCARM 12001 it was greater than 16 µg/mL; in the experiment on A. baumannii ATCC 1906, 2 µg/mL (≈ 3.75 µM). In addition, the activity in words result with K. pneumonia ATCC 13883 is “active”.

The values are drawn from patent publication US10570152B2, “Antibacterial therapeutics and prophylactics” (VYOME BIOSCIENCES PVT. LTD., priority 2015, dated 2020).
